Results reported in the supplement of paper PMC11208160.

Test: recombinant barcode read abundance after kanamycin selection (control-corrected) (log10(CPM+1)); higher = more efficient recombination; sequences stand for … in AGTGCAGAGAAAATCGGCCAGTTTTCTCTGCCTGCAGTCCGCATGCCGT…ATTTATGCAGCGGACTGCCTTTCTCCCAAAGTGATAAACCGGACAGTATCATGGACCGGTTTTCCCGGTAATCCGTATTTGCAAGGTTGGTTTCACT; site = the 11-nt target
Procedure: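 Same pooled E. coli target screen (IS621 bridge recombinase, kanamycin selection, control-corrected CPM, mean of 2 biological replicates). Here the two core-binding nucleotides of the LTG and RTG of the bridge RNA target-binding loop are mutated. Target and donor CT cores are held constant, and the other 9 guide positions match the target. The target is read from the library oligo sequence. Molecule = full bridge RNA written as DNA: nt 1-80 from the library oligo, rest WT scaffold.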

Sequence	recombinant barcode read abundance (log10)
AGGCCTCCTTGGGTTCTAACCTGTTGCCTGT [AGGCCTCCTAG_LTGcore_CT_RTGcore_AC] (site AGGCCTCCTAG) (LTG core: CT, RTG core: AC)	0.0115
AGGCCTCGATGGGTTCTAACCTGTTGCCTTC [AGGCCTCCTAG_LTGcore_GA_RTGcore_GA] (site AGGCCTCCTAG) (LTG core: GA, RTG core: GA)	0.206
AGGCCTCGTTGGGTTCTAACCTGTTGCCTAC [AGGCCTCCTAG_LTGcore_GT_RTGcore_GT] (site AGGCCTCCTAG) (LTG core: GT, RTG core: GT)	0.0637
AGGCGGGAATGGGTTCTAACCTGTTGCGGAG [AGGCGGGCTCC_LTGcore_AA_RTGcore_CT] (site AGGCGGGCTCC) (LTG core: AA, RTG core: CT)	0.668
AGGCGGGAGTGGGTTCTAACCTGTTGCGGAG [AGGCGGGCTCC_LTGcore_AG_RTGcore_CT] (site AGGCGGGCTCC) (LTG core: AG, RTG core: CT)	0.325
AGGCGGGCTTGGGTTCTAACCTGTTGCGGCC [AGGCGGGCTCC_LTGcore_CT_RTGcore_GG] (site AGGCGGGCTCC) (LTG core: CT, RTG core: GG)	0.367
AGGCGGGCTTGGGTTCTAACCTGTTGCGGGC [AGGCGGGCTCC_LTGcore_CT_RTGcore_GC] (site AGGCGGGCTCC) (LTG core: CT, RTG core: GC)	0.249
AGGCGGGCTTGGGTTCTAACCTGTTGCGGGT [AGGCGGGCTCC_LTGcore_CT_RTGcore_AC] (site AGGCGGGCTCC) (LTG core: CT, RTG core: AC)	0.945
AGGCGGGCTTGGGTTCTAACCTGTTGCGGTT [AGGCGGGCTCC_LTGcore_CT_RTGcore_AA] (site AGGCGGGCTCC) (LTG core: CT, RTG core: AA)	0.0746
AGGCGGGGCTGGGTTCTAACCTGTTGCGGAG [AGGCGGGCTCC_LTGcore_GC_RTGcore_CT] (site AGGCGGGCTCC) (LTG core: GC, RTG core: CT)	0.207
AGGCGGGGTTGGGTTCTAACCTGTTGCGGAC [AGGCGGGCTCC_LTGcore_GT_RTGcore_GT] (site AGGCGGGCTCC) (LTG core: GT, RTG core: GT)	0.0704
AGGCGGGTCTGGGTTCTAACCTGTTGCGGGA [AGGCGGGCTCC_LTGcore_TC_RTGcore_TC] (site AGGCGGGCTCC) (LTG core: TC, RTG core: TC)	0.156
AGGCGGTATTGGGTTCTAACCTGTTGCTTAG [AGGCGGTCTAA_LTGcore_AT_RTGcore_CT] (site AGGCGGTCTAA) (LTG core: AT, RTG core: CT)	0.127
AGGCGGTCATGGGTTCTAACCTGTTGCTTTG [AGGCGGTCTAA_LTGcore_CA_RTGcore_CA] (site AGGCGGTCTAA) (LTG core: CA, RTG core: CA)	0.128
AGGCGGTCTTGGGTTCTAACCTGTTGCTTAC [AGGCGGTCTAA_LTGcore_CT_RTGcore_GT] (site AGGCGGTCTAA) (LTG core: CT, RTG core: GT)	1.26
AGGCGGTTTTGGGTTCTAACCTGTTGCTTAA [AGGCGGTCTAA_LTGcore_TT_RTGcore_TT] (site AGGCGGTCTAA) (LTG core: TT, RTG core: TT)	0.0993
AGTCTTAATTGGGTTCTAACCTGTTGCCAAG [AGTCTTACTTG_LTGcore_AT_RTGcore_CT] (site AGTCTTACTTG) (LTG core: AT, RTG core: CT)	0.295

Sequence	recombinant barcode read abundance (log10)
AGTCTTACATGGGTTCTAACCTGTTGCCAAG [AGTCTTACTTG_LTGcore_CA_RTGcore_CT] (site AGTCTTACTTG) (LTG core: CA, RTG core: CT)	0.033
AGTCTTACGTGGGTTCTAACCTGTTGCCAAG [AGTCTTACTTG_LTGcore_CG_RTGcore_CT] (site AGTCTTACTTG) (LTG core: CG, RTG core: CT)	0.0383
AGTCTTACTTGGGTTCTAACCTGTTGCCAAA [AGTCTTACTTG_LTGcore_CT_RTGcore_TT] (site AGTCTTACTTG) (LTG core: CT, RTG core: TT)	0.0465
AGTCTTACTTGGGTTCTAACCTGTTGCCACG [AGTCTTACTTG_LTGcore_CT_RTGcore_CG] (site AGTCTTACTTG) (LTG core: CT, RTG core: CG)	0.0125
AGTCTTACTTGGGTTCTAACCTGTTGCCAGC [AGTCTTACTTG_LTGcore_CT_RTGcore_GC] (site AGTCTTACTTG) (LTG core: CT, RTG core: GC)	0.13
AGTCTTACTTGGGTTCTAACCTGTTGCCAGG [AGTCTTACTTG_LTGcore_CT_RTGcore_CC] (site AGTCTTACTTG) (LTG core: CT, RTG core: CC)	0.196
AGTCTTATCTGGGTTCTAACCTGTTGCCAGA [AGTCTTACTTG_LTGcore_TC_RTGcore_TC] (site AGTCTTACTTG) (LTG core: TC, RTG core: TC)	0.0509
ATGCTTTACTGGGTTCTAACCTGTTGCCTAG [ATGCTTTCTAG_LTGcore_AC_RTGcore_CT] (site ATGCTTTCTAG) (LTG core: AC, RTG core: CT)	0.0722
ATGCTTTCATGGGTTCTAACCTGTTGCCTTG [ATGCTTTCTAG_LTGcore_CA_RTGcore_CA] (site ATGCTTTCTAG) (LTG core: CA, RTG core: CA)	0.1
ATGCTTTCGTGGGTTCTAACCTGTTGCCTCG [ATGCTTTCTAG_LTGcore_CG_RTGcore_CG] (site ATGCTTTCTAG) (LTG core: CG, RTG core: CG)	0.295
ATGCTTTCTTGGGTTCTAACCTGTTGCCTAT [ATGCTTTCTAG_LTGcore_CT_RTGcore_AT] (site ATGCTTTCTAG) (LTG core: CT, RTG core: AT)	0.128
ATGCTTTCTTGGGTTCTAACCTGTTGCCTGC [ATGCTTTCTAG_LTGcore_CT_RTGcore_GC] (site ATGCTTTCTAG) (LTG core: CT, RTG core: GC)	0.295
ATGCTTTCTTGGGTTCTAACCTGTTGCCTGT [ATGCTTTCTAG_LTGcore_CT_RTGcore_AC] (site ATGCTTTCTAG) (LTG core: CT, RTG core: AC)	0.101
ATGCTTTCTTGGGTTCTAACCTGTTGCCTTC [ATGCTTTCTAG_LTGcore_CT_RTGcore_GA] (site ATGCTTTCTAG) (LTG core: CT, RTG core: GA)	0.0663
ATGCTTTGGTGGGTTCTAACCTGTTGCCTAG [ATGCTTTCTAG_LTGcore_GG_RTGcore_CT] (site ATGCTTTCTAG) (LTG core: GG, RTG core: CT)	0.179
ATGCTTTGTTGGGTTCTAACCTGTTGCCTAC [ATGCTTTCTAG_LTGcore_GT_RTGcore_GT] (site ATGCTTTCTAG) (LTG core: GT, RTG core: GT)	0.302
ATGCTTTGTTGGGTTCTAACCTGTTGCCTAG [ATGCTTTCTAG_LTGcore_GT_RTGcore_CT] (site ATGCTTTCTAG) (LTG core: GT, RTG core: CT)	0.0408
